In ChEMBL document CHEMBL2375211, “2-methoxyjuglone induces apoptosis in HepG2 human hepatocellular carcinoma cells and exhibits in vivo antitumor activity in a H22 mouse hepatocellular carcinoma model” (J Nat Prod, 2013):
Values after ≈ are worked out from the molar mass of the structure shown. Active and inactive are the calls of the source. The calls are words filed in the database; no cut-off is given here.

Legend:
[1] = test system: HepG2; assay: Cell cycle arrest in human HepG2 cells assessed as accumulation at G2/M phase at 6.4 ug/mL after 48 hrs by propidium iodide staining-based flow cytometric analysis (reference value: 5%); format: functional
[2] = test system: HepG2; assay: Cell cycle arrest in human HepG2 cells assessed as accumulation at G2/M phase at 3.2 ug/mL after 24 hrs by propidium iodide staining-based flow cytometric analysis (reference value: 9%); format: functional
[3] = test system: HepG2; assay: Cell cycle arrest in human HepG2 cells assessed as accumulation at sub-G1 phase at 4.8 ug/mL after 24 hrs by propidium iodide staining-based flow cytometric analysis (reference value: 4%); format: functional
[4] = test system: HepG2; assay: Induction of apoptosis in human HepG2 cells assessed as increase in mitochondrial cytochrome c release after 24 hrs by Western blot analysis; format: functional, cell-based
[5] = test system: HepG2; assay: Cell cycle arrest in human HepG2 cells assessed as accumulation at S phase at 1.6 ug/mL after 24 hrs by propidium iodide staining-based flow cytometric analysis (reference value: 46%); format: functional
[6] = test system: HepG2; assay: Induction of apoptosis in human HepG2 cells assessed as decrease in Bcl-2 level at 1.6 to 4.8 ug/mL after 24 hrs by Western blot analysis; format: functional, cell-based
[7] = test system: HepG2; assay: Induction of apoptosis in human HepG2 cells assessed as membrane damage at 4.8 to 8 ug/mL after 24 hrs by acridine orange/ethidium bromide staining-based fluorescence microscopic analysis; format: functional, cell-based
[8] = test system: HepG2; assay: Cell cycle arrest in human HepG2 cells assessed as accumulation at sub-G1 phase at 6.4 ug/mL after 48 hrs by propidium iodide staining-based flow cytometric analysis (reference value: 3%); format: functional
[9] = test system: H22; assay: Antitumor activity against mouse H22 cells allografted in Kunming mouse assessed as decrease in weight of tumor mass at 0.5 mg/kg/day, ip administered 8 days measured after 10 days relative to control; format: functional; design: scale not given: the % may be the effect or the level left; details: route intraperitoneal
[10] = test system: HepG2; assay: Cell cycle arrest in human HepG2 cells assessed as accumulation at S phase at 8 ug/mL after 48 hrs by propidium iodide staining-based flow cytometric analysis (reference value: 31%); format: functional
[11] = test system: HepG2; assay: Cytotoxicity against human HepG2 cells assessed as decrease in cell viability after 24 to 72 hrs by MTT assay; format: functional, cell-based
[12] = test system: HepG2; assay: Cell cycle arrest in human HepG2 cells assessed as accumulation at S phase at 3.2 ug/mL after 48 hrs by propidium iodide staining-based flow cytometric analysis (reference value: 31%); format: functional
[13] = test system: HepG2; assay: Cell cycle arrest in human HepG2 cells assessed as accumulation at G1 phase at 8 ug/mL after 48 hrs by propidium iodide staining-based flow cytometric analysis (reference value: 64%); format: functional
[14] = test system: H22; assay: Antitumor activity against mouse H22 cells allografted in Kunming mouse assessed as decrease in weight of tumor mass at 1 mg/kg/day, ip administered 8 days measured after 10 days relative to control; format: functional; design: scale not given: the % may be the effect or the level left; details: route intraperitoneal
[15] = test system: HepG2; assay: Cell cycle arrest in human HepG2 cells assessed as accumulation at G2/M phase at 4.8 ug/mL after 48 hrs by propidium iodide staining-based flow cytometric analysis (reference value: 5%); format: functional
[16] = test system: HepG2; assay: Cell cycle arrest in human HepG2 cells assessed as accumulation at G1 phase at 3.2 ug/mL after 48 hrs by propidium iodide staining-based flow cytometric analysis (reference value: 64%); format: functional
[17] = test system: Mus musculus; assay: Toxicity in Kunming mouse allografted with mouse H22 cells assessed as decrease in body weight at 0.25 to 1 mg/kg/day, ip measured every day for 8 days; format: organism-based; design: route intraperitoneal; details: in vivo, 192 h
[18] = test system: HepG2; assay: Cell cycle arrest in human HepG2 cells assessed as accumulation at sub-G1 phase at 1.6 ug/mL after 48 hrs by propidium iodide staining-based flow cytometric analysis (reference value: 3%); format: functional
[19] = test system: HepG2; assay: Cell cycle arrest in human HepG2 cells assessed as accumulation at G2/M phase at 4.8 ug/mL after 24 hrs by propidium iodide staining-based flow cytometric analysis (reference value: 9%); format: functional
[20] = test system: HepG2; assay: Induction of apoptosis in human HepG2 cells assessed as appearance of membrane blebbing at 4.8 to 8 ug/mL after 24 hrs by inverted microscopic analysis relative to control; format: functional, cell-based
[21] = test system: HepG2; assay: Cell cycle arrest in human HepG2 cells assessed as accumulation at G2/M phase at 1.6 ug/mL after 24 hrs by propidium iodide staining-based flow cytometric analysis (reference value: 9%); format: functional
[22] = test system: HepG2; assay: Induction of apoptosis in human HepG2 cells assessed as appearance of cell shrinkage at 4.8 to 8 ug/mL after 24 hrs by inverted microscopic analysis relative to control; format: functional, cell-based
[23] = test system: HepG2; assay: Cell cycle arrest in human HepG2 cells assessed as accumulation at sub-G1 phase at 8 ug/mL after 48 hrs by propidium iodide staining-based flow cytometric analysis (reference value: 3%); format: functional
[24] = test system: HepG2; assay: Cell cycle arrest in human HepG2 cells assessed as accumulation at S phase at 4.8 ug/mL after 24 hrs by propidium iodide staining-based flow cytometric analysis (reference value: 46%); format: functional
[25] = test system: HepG2; assay: Induction of apoptosis in human HepG2 cells assessed as mitochondrial cytochrome c-dependent caspase-3 activation at 1.6 to 4.8 ug/mL after 24 hrs by Western blot analysis; format: functional, cell-based
[26] = test system: HepG2; assay: Cell cycle arrest in human HepG2 cells assessed as accumulation at G1 phase at 8 ug/mL after 24 hrs by propidium iodide staining-based flow cytometric analysis (reference value: 45%); format: functional
[27] = test system: HepG2; assay: Induction of apoptosis in human HepG2 cells assessed as PARP cleavage at 1.6 to 4.8 ug/mL after 24 hrs by Western blot analysis; format: functional, cell-based
[28] = test system: HepG2; assay: Cell cycle arrest in human HepG2 cells assessed as accumulation at G2/M phase at 8 ug/mL after 24 hrs by propidium iodide staining-based flow cytometric analysis (reference value: 9%); format: functional
[29] = test system: HepG2; assay: Induction of apoptosis in human HepG2 cells assessed as nuclear condensation at 4.8 ug/mL after 24 hrs by acridine orange/ethidium bromide staining-based fluorescence microscopic analysis; format: functional, cell-based
[30] = test system: HepG2; assay: Cytotoxicity against human HepG2 cells assessed as cell viability after 72 hrs by MTT assay; format: functional, cell-based; details: HepG2, 72 h

SMILES: COC1=CC(=O)c2c(O)cccc2C1=O
- Activity [1]: 2%
- Activity [2]: 2%
- Activity [3]: 7%
- Activity [4]: Dose-dependent effect
- Activity [5]: 62%
- Activity [6]: Active
- Activity [7]: Active
- Activity [8]: 18%
- Activity [9]: 56%
- Activity [10]: 46%
- Activity [11]: Dose-dependent effect
- Activity [12]: 64%
- Activity [13]: 54%
- Activity [14]: 67%
- Activity [15]: 2%
- Activity [16]: 35%
- Activity [17]: Non-toxic
- Activity [18]: 6%
- Activity [19]: 0%
- Activity [20]: Active
- Activity [21]: 1%
- Activity [22]: Active
- Activity [23]: 33%
- Activity [24]: 62%
- Activity [25]: Active
- Activity [26]: 41%
- Activity [27]: Active
- Activity [28]: 0%
- Activity [29]: Active
- IC50 [30]: 2.7 µg/mL (≈ 13.2 µM)
